Assay results: patent publication US7750000B2, “Substituted imidazo[1,2b]pyridazines as kinase inhibitors, their preparation and use as medicaments” (Bayer Schering Pharma AG, priority 2005, dated 2010)
pIC50: −log10 of the molar value.

How the values were obtained:
PKC theta = PKC theta (Homo sapiens, UniProt Q04759); experiment: Inhibition of PKC theta; assay type: biochemical
[1] = test system: interleukin 2 (IL-2) secretion of peripheral blood mononuclear cells (PBMC); experiment: Antibody-induced (anti-CD3/anti-CD28) IL-2 secretion in PBMC, ELISA; assay type: cell-based; conditions: human PBMC, anti-CD3/anti-CD28 stimulation; for pIC50: 20 hours, read-out: IC50 (concentration for 50% inhibition of IL-2)
Experimental: The extent to which test substance influence antibody-induced interleukin 2 (IL-2) secretion was investigated in the following test system. IL-2 represents a central cytokine which is produced and released by activated T cells. IL-2 synthesis in the T cells is regulated by a plurality of kinases. An inhibitory effect of substances on kinases leads inter alia to inhibition of IL-2 synthesis and inhibition of the T cell immune response. The cytokine determinations were carried out using an ELISA kit.
Peripheral blood mononuclear cells (PBMC) were isolated from heparinized human whole blood by gradient centrifugation using Histopaque 1077 (Sigma) at room temperature, and the erythrocytes were lyzed hypotonically and, after washing twice in PBS, taken up in cell culture medium (10% fetal inactivated calf serum in RPMI-1640+Glutamax-I [Gibco]).
The 96 well culture plates (Costar) were previously incubated with 100 μl of antibody solution in PBS 0.1 μg/ml in PBS [Gibco]) per well at 4° C. for 18 hours. The antibodies used were anti-CD3 and anti-CD28 monoclonal antibodies (PharMingen). After washing with PBS three times, the plates were charged with 200 μl of the cell suspension (40 000 cells/well). […]
The cultures were incubated in an incubator at 37° C. for 20 hours. After this incubation, the plates were briefly shaken and centrifuged, and […] of supernatant were removed, and the supernatants were then frozen at −20° C.
Interleukin-2 was determined using an ELISA kit (Bioscience), and the absorption of the color change was analyzed in a SpectraMax 340 PC (wavelength 450 nm). Active substances brought about a reduction in the absorption.

Chain of PKC theta (Q04759 whole entry): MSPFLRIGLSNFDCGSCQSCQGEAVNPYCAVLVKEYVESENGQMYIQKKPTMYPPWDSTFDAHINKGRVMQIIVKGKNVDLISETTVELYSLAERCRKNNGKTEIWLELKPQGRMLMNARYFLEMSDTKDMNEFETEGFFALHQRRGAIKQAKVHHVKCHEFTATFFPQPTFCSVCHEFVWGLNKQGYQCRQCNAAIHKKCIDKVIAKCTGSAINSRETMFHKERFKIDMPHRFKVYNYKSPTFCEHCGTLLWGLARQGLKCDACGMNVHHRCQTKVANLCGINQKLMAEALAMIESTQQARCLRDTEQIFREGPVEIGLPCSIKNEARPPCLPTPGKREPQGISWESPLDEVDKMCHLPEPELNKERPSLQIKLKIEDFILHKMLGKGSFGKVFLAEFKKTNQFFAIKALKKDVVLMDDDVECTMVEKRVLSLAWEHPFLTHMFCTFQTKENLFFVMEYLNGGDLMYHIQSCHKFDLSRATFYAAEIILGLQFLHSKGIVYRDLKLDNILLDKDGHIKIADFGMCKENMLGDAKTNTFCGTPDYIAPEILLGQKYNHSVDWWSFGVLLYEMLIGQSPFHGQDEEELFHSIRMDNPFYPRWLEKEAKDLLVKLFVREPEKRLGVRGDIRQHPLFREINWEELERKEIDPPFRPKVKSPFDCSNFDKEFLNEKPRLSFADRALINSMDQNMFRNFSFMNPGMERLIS

Structure (SMILES)	pIC50 (PKC theta)	pIC50 [1]	inhibition at 10 µM [1] [%]
c1ccc(-c2cnc3ccc(NCCCn4ccnc4)nn23)cc1 [KE1322-002-a]	4.89	5.77	
Clc1cccc(-c2cnc3ccc(NCCCN4CCCC4)nn23)c1 [OP 3073]	6.60	6.68	> 95
Clc1cccc(-c2cnc3ccc(NCCN4CCCC4)nn23)c1 [KE1322-024-a]	5.77	6.00	
CCN(CC)CCCNc1ccc2ncc(-c3cccc(Cl)c3)n2n1 [KE1322-023-a]	6.60	6.68	
c1ccc(-c2cnc3ccc(NCCCN4CCOCC4)nn23)cc1 [OP 3071]	4.77	5.60	> 95
Clc1cccc(-c2cnc3ccc(NCCCN4CCOCC4)nn23)c1 [OP 3074]	6.39	6.04	> 95
CCN(CC)CCCNc1ccc2ncc(-c3ccccc3)n2n1 [KE1322-011-a]	5.26	5.59	
Cc1[nH]ncc1CCCNc1ccc2ncc(-c3cnn(C)c3)n2n1 [KE1322-030-a]	5.14	6.15	
Cn1cc(-c2cnc3ccc(NCC4CCCCC4)nn23)cn1 [KE1322-028-a]	5.15		
Cc1[nH]ncc1CCCNc1ccc2ncc(-c3ccsc3)n2n1 [KE1322-042-a]	4.89	6.40	
Clc1cccc(-c2cnc3ccc(NCCCn4ccnc4)nn23)c1 [KE1322-014-a]	5.14	5.96	
Cc1[nH]ncc1CCCNc1ccc2ncc(-c3ccccc3)n2n1 [KE1322-006-a]	4.95	5.70	
c1ccc(-c2cnc3ccc(NCCCN4CCCC4)nn23)cc1 [OP 3070]	5.21	5.85	> 95
CCN(CC)CCCC(C)Nc1ccc2ncc(-c3ccccc3)n2n1 (stereo not drawn) [KE1322-010-a]	5.27	5.96	
CCN(CC)CCCC(C)Nc1ccc2ncc(-c3cccc(Cl)c3)n2n1 (stereo not drawn) [KE1322-022-a]	6.66	6.54	
